# According to patent US20230091047A1 (priority 2019, published 2023):
# Where two headings read alike, the source gives them in different places.
# How the values were obtained:
# in vitro = type: cell-based; details: human, HepG2 or HepG2.117 cells, ATPlite, 3-days incubation (not marked with *), mean value
# Summary of the method: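 Luminescent ATP quantitation served as the viability endpoint following a 3- or 4-day incubation with test compounds.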
# [1] = tested on: HBV (HepG2.117 cell line, inducibly HBV producing); assay: Anti-HBV activity: intracellular HBV DNA by real-time PCR in HepG2.117 cells after 3 days of treatment; type: cell-based, hepatitis B virus; details: HepG2.117 cells, intracellular HBV DNA by real-time PCR, 3 days of treatment, mean value, read-out: EC50 (μM, mean value)
# Summary of the method: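 Tet-off HepG2.117; HBV replication induced (no doxycycline); serial compound dilutions, 3 d; intracellular HBV DNA by real-time PCR, HBV-specific primers/probe.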
# [2] = Hepatitis B virus, HepG2.117, 72 h
Compound,CC50 at 3 days (in vitro),"EC50 [1, 2]",EC50 [1]
CNC(=O)c1ccc(-n2c(NC(C)c3cc(C)no3)nc3c(c2=O)C[C@@H](C)N(C(=O)c2ccc(Cl)c(Cl)c2)C3)cc1 (stereo partly shown) [Compound C433],> 50 µM,0.33 µM,
CNC(=O)c1ccc(-n2c(NC(C)c3nccs3)nc3c(c2=O)C[C@@H](C)N(C(=O)c2ccc(Cl)c(Cl)c2)C3)cc1 (stereo partly shown) [Compound C434],> 50 µM,0.57 µM,
CNC(=O)c1ccc(-n2c(NC(CC3CC3)c3ccccc3)nc3c(c2=O)C[C@@H](C)N(C(=O)c2ccc(Cl)c(Cl)c2)C3)cc1 (stereo partly shown) [Compound C437],28.1 µM,0.44 µM,
CNC(=O)c1ccc(-n2c(NC(C)c3ccccc3OC(F)F)nc3c(c2=O)C[C@@H](C)N(C(=O)c2ccc(Cl)c(Cl)c2)C3)cc1 (stereo partly shown) [Compound C438],31.2 µM,0.4 µM,
CC(C)Nc1nc2c(c(=O)n1-c1cccc(-n3ccnn3)c1)C[C@@H](C)N(C(=O)c1ccc(Cl)c(Cl)c1)C2 [Compound C442],> 50 µM,0.21 µM,
CNC(=O)c1ccc(-n2c(N[C@@H](C)c3ccccc3C(F)(F)F)nc3c(c2=O)C[C@@H](C)N(C(=O)c2ccc(Cl)c(Cl)c2)C3)cc1 [Compound C443],7.2 µM,0.45 µM,
CNC(=O)c1ccc(-n2c(N3CC4CC3(C)C4)nc3c(c2=O)C[C@@H](C)N(C(=O)c2ccc(Cl)c(Cl)c2)C3)cc1 [Compound C444],37.6 µM,0.06 µM,
CNC(=O)c1ccc(-n2c(N[C@@H](C)c3ccccc3Cl)nc3c(c2=O)C[C@@H](C)N(C(=O)c2ccc(Cl)c(Cl)c2)C3)cc1 [Compound C445],24.1 µM,0.28 µM,
CNC(=O)c1ccc(-n2c(O[C@@H](C)C(C)C)nc3c(c2=O)C[C@@H](C)N(C(=O)c2ccc(Cl)c(Cl)c2)C3)cc1 [Compound C446],27.6 µM,0.03 µM,
CNc1noc2cc(-n3c(NC(C)C)nc4c(c3=O)C[C@@H](C)N(C(=O)c3ccc(Cl)c(Cl)c3)C4)c(C)cc12 [Compound C447],> 50 µM,,0.1 µM
CC(C)Nc1nc2c(c(=O)n1-c1cccc(-c3cn[nH]n3)c1)C[C@@H](C)N(C(=O)c1ccc(Cl)c(Cl)c1)C2 [Compound C448],27.9 µM,0.12 µM,
CNC(=O)c1ccc(-n2c(NCC34C5C6C7C5C3C7C64)nc3c(c2=O)C[C@@H](C)N(C(=O)c2ccc(Cl)c(Cl)c2)C3)cc1 (stereo partly shown) [Compound C451],> 50 µM,0.41 µM,
CNC(=O)c1ccc(-n2c(N[C@H]3C[C@@H]3c3ccc(OC)cc3)nc3c(c2=O)C[C@@H](C)N(C(=O)c2ccc(Cl)c(Cl)c2)C3)cc1 [Compound C452],> 50 µM,,2.91 µM
CC(C)Nc1nc2c(c(=O)n1-c1ccc(-c3nn[nH]n3)cc1)C[C@@H](C)N(C(=O)c1ccc(Cl)c(Cl)c1)C2 [Compound C453],> 50 µM,5.81 µM,
CNC(=O)C12C3C4C1C1C2C3C41n1c(NC(C)C)nc2c(c1=O)C[C@@H](C)N(C(=O)c1ccc(Cl)c(Cl)c1)C2 (stereo partly shown) [Compound C456],> 50 µM,0.4 µM,
CNC(=O)c1ccc(-n2c(N(C)Cc3cccc(OC)c3)nc3c(c2=O)C[C@@H](C)N(C(=O)c2ccc(Cl)c(Cl)c2)C3)cc1 [Compound C457],38.1 µM,0.1 µM,
CNC(=O)c1ccc(-n2c(O[C@H](C)C(C)C)nc3c(c2=O)C[C@@H](C)N(C(=O)c2ccc(Cl)c(Cl)c2)C3)cc1 [Compound C458],24.8 µM,0.06 µM,
CNC(=O)c1ccc(-n2c(NC(C)C(C)(C)C)nc3c(c2=O)C[C@@H](C)N(C(=O)c2ccc(Cl)c(Cl)c2)C3)cc1 (stereo partly shown) [Compound C459],28.6 µM,0.24 µM,
CC(C)Nc1nc2c(c(=O)n1-c1ccc(-n3cnnn3)cc1)C[C@@H](C)N(C(=O)c1ccc(Cl)c(Cl)c1)C2 [Compound C460],> 50 µM,0.09 µM,
CNC(=O)c1ccc(-n2c(NC34C5C6C7C5C3C7C64)nc3c(c2=O)C[C@@H](C)N(C(=O)c2ccc(Cl)c(Cl)c2)C3)cc1 (stereo partly shown) [Compound C461],> 50 µM,1.45 µM,
CNC(=O)c1ccc(-n2c(NCc3ccn(-c4ccc(F)cc4)n3)nc3c(c2=O)C[C@@H](C)N(C(=O)c2ccc(Cl)c(Cl)c2)C3)cc1 [Compound C465],22.6 µM,0.65 µM,
CNC(=O)c1ccc(-n2c(N[C@@H]3CCO[C@H]3c3ccccc3)nc3c(c2=O)C[C@@H](C)N(C(=O)c2ccc(Cl)c(Cl)c2)C3)cc1 [Compound C466],31.5 µM,1.43 µM,
CNC(=O)c1ccc(-n2c(N3CCCCCC3)nc3c(c2=O)C[C@@H](C)N(C(=O)c2ccc(Cl)c(Cl)c2)C3)cc1 [Compound C467],30 µM,0.1 µM,
CNC(=O)c1ccc(-n2c(NCc3ccc(-c4nc[nH]n4)cc3)nc3c(c2=O)C[C@@H](C)N(C(=O)c2ccc(Cl)c(Cl)c2)C3)cc1 [Compound C468],> 50 µM,18.8 µM,

Compound,CC50 at 3 days (in vitro),"EC50 [1, 2]",EC50 [1]
CNC(=O)c1ccc(-n2c(NCc3cn(C)nn3)nc3c(c2=O)C[C@@H](C)N(C(=O)c2ccc(Cl)c(Cl)c2)C3)cc1 [Compound C469],> 50 µM,> 25 µM,
CNC(=O)c1ccc(-n2c(N3CCOC(C)C3)nc3c(c2=O)C[C@@H](C)N(C(=O)c2ccc(Cl)c(Cl)c2)C3)cc1 (stereo partly shown) [Compound C470],> 50 µM,> 25 µM,
CNC(=O)c1ccc(-n2c(NC(C)C)nc3c(c2=O)C[C@@H](C)N(C(=O)c2cc4c(Br)c(C)ccc4[nH]2)C3)cc1 [Compound C471],21.6 µM,0.25 µM,
CNC(=O)c1ccc(-n2c(NC(C)C)nc3c(c2=O)C[C@@H](C)N(C(=O)c2cc(F)c(Cl)cc2Cl)C3)cc1 [Compound C472],> 50 µM,0.92 µM,
CNC(=O)c1ccc(-n2c(NC(C)C)nc3c(c2=O)C[C@@H](C)N(C(=O)c2n[nH]c4ccc(Cl)cc24)C3)cc1 [Compound C473],> 50 µM,> 25 µM,
CNC(=O)c1ccc(-n2c(NC(C)C)nc3c(c2=O)C[C@@H](C)N(C(=O)c2ccc4nnn(C)c4c2)C3)cc1 [Compound C474],> 50 µM,> 25 µM,
CNC(=O)c1ccc(-n2c(NC(C)C)nc3c(c2=O)C[C@@H](C)N(C(=O)c2ccc(OC(F)F)c(Cl)c2)C3)cc1 [Compound C475],> 50 µM,0.07 µM,
CNC(=O)c1ccc(-n2c(NC(C)C)nc3c(c2=O)C[C@@H](C)N(C(=O)c2cc(F)c(C(F)(F)F)c(F)c2)C3)cc1 [Compound C476],> 50 µM,0.12 µM,
CNC(=O)c1ccc(-n2c(NC(C)C)nc3c(c2=O)C[C@@H](C)N(C(=O)c2nn(C)c4ccccc24)C3)cc1 [Compound C477],> 50 µM,10.2 µM,
CNC(=O)c1ccc(-n2c(NC(C)C)nc3c(c2=O)C[C@@H](C)N(C(=O)c2ccc(F)c(Cl)c2)C3)cc1 [Compound C478],> 50 µM,1.28 µM,
CNC(=O)c1ccc(-n2c(N(C)Cc3cn(C)nn3)nc3c(c2=O)C[C@@H](C)N(C(=O)c2ccc(Cl)c(Cl)c2)C3)cc1 [Compound C479],> 50 µM,3.81 µM,
CNC(=O)c1ccc(-n2c(NC3COC(C)(C)C3)nc3c(c2=O)C[C@@H](C)N(C(=O)c2ccc(Cl)c(Cl)c2)C3)cc1 (stereo partly shown) [Compound C480],> 50 µM,10.3 µM,
CNC(=O)c1ccc(-n2c(NC(C)Cn3cnnc3)nc3c(c2=O)C[C@@H](C)N(C(=O)c2ccc(Cl)c(Cl)c2)C3)cc1 (stereo partly shown) [Compound C481],> 50 µM,> 25 µM,
CNC(=O)c1ccc(-n2c(NCC(CO)C3CC3)nc3c(c2=O)C[C@@H](C)N(C(=O)c2ccc(Cl)c(Cl)c2)C3)cc1 (stereo partly shown) [Compound C482],> 50 µM,8.34 µM,
CNC(=O)c1ccc(-n2c(NCc3nnc4n3CCC4)nc3c(c2=O)C[C@@H](C)N(C(=O)c2ccc(Cl)c(Cl)c2)C3)cc1 [Compound C483],> 25 µM,> 12.5 µM,
CNC(=O)c1ccc(-n2c(NC(C)c3ncn(C)n3)nc3c(c2=O)C[C@@H](C)N(C(=O)c2ccc(Cl)c(Cl)c2)C3)cc1 (stereo partly shown) [Compound C484],> 50 µM,3.09 µM,
CNC(=O)c1ccc(-n2c(NCc3ccccc3-n3ccnc3)nc3c(c2=O)C[C@@H](C)N(C(=O)c2ccc(Cl)c(Cl)c2)C3)cc1 [Compound C485],24.9 µM,11.9 µM,
CNC(=O)c1ccc(-n2c(NCc3nc(-c4ccccc4)n[nH]3)nc3c(c2=O)C[C@@H](C)N(C(=O)c2ccc(Cl)c(Cl)c2)C3)cc1 [Compound C486],> 50 µM,17.3 µM,
CNC(=O)c1ccc(-n2c(N3C[C@@H](C#N)[C@H](c4ccccc4)C3)nc3c(c2=O)C[C@@H](C)N(C(=O)c2ccc(Cl)c(Cl)c2)C3)cc1 [Compound C487],> 50 µM,0.25 µM,
CNC(=O)c1ccc(-n2c(NCc3cccc(-c4nccn4C)c3)nc3c(c2=O)C[C@@H](C)N(C(=O)c2ccc(Cl)c(Cl)c2)C3)cc1 [Compound C488],28.2 µM,7.31 µM,
CNC(=O)c1ccc(-n2c(NC(C)c3cn(C)nn3)nc3c(c2=O)C[C@@H](C)N(C(=O)c2ccc(Cl)c(Cl)c2)C3)cc1 (stereo partly shown) [Compound C489],> 50 µM,> 25 µM,
CNC(=O)c1ccc(-n2c(NCc3csc(C4CC4)n3)nc3c(c2=O)C[C@@H](C)N(C(=O)c2ccc(Cl)c(Cl)c2)C3)cc1 [Compound C490],28.4 µM,0.89 µM,
CNC(=O)c1ccc(-n2c(NC(C)C)nc3c(c2=O)C[C@@H](C)N(C(=O)c2ccc4cncc(Br)c4c2)C3)cc1 [Compound C491],> 50 µM,15.3 µM,
